Experimental data reported in patent publication US20220144812A1, “QUINOLINE DERIVATIVES AND THEIR USE FOR THE TREATMENT OF CANCER” (Epizyme, Inc., priority 2019, published 2022).
Where two headings read alike, the source gives them in different places.

Legend:
[1] = test system: H3K18Ac in HB-CLS-2 cells; assay: H3K18AC in-cell western (ICW) assay; type: cell-based; details: read-out: CREBBP ICW IC50
Summary of the method: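 HB-CLS-2 cells seeded 16–24 hours before 2 hr compound treatment at 37° C, 5% CO2, then methanol-fixed. H3K18Ac detected with rabbit monoclonal primary (overnight, 4° C) and 800CW anti-rabbit secondary; DRAQ5 stained DNA. Plates imaged at 700 and 800 nm for integrated intensity; IC50 in μM.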

647V cells = assay: High throughput proliferation (HTP) assay; type: cell-based; details: Homo sapiens, 647-V, read-out: CREBBP HTP IC50
Summary of the method: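 Exponentially growing 647V cells in DMEM with 15% FBS were treated in triplicate with increasing compound concentrations at 37° C, 5% CO2. Viable cell number was read by CellTiter-Glo luminescence on day 7; IC50 in micromolar.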

EP300 (P300(1048-1664)) = biological target: T1, EP300 (P300(1048-1664)) (Homo sapiens, UniProt Q09472); assay: Biochemical assay for EP300, SAMDI; details: read-out: EP300 Biochemistry IC50
T1 construct: P300(1048-1664)
T1 sequence (Q09472 1048-1664): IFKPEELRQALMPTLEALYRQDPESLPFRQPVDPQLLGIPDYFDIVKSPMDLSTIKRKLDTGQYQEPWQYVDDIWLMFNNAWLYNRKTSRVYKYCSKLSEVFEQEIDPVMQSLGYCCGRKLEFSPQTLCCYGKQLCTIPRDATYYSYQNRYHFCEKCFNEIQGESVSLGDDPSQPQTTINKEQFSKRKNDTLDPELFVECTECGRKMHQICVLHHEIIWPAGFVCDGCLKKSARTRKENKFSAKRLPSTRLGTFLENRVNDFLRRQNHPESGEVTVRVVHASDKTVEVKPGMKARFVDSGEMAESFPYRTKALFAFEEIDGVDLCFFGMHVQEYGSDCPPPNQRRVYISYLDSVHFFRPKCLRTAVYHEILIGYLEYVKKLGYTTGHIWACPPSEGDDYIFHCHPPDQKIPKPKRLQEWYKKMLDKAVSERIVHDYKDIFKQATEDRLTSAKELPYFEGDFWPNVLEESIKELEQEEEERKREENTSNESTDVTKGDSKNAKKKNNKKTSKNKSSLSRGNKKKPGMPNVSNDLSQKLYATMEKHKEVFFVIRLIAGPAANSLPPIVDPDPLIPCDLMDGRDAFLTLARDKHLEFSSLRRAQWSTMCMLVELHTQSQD
Excerpt: The following example describes materials and methods relating to a biochemical assay for EP300. IC50 values (micromolar (μM)) are summarized in Table 1, Table 2, and Table 3 under the column labeled: “EP300 Biochemistry IC50 (micromolar).”

CREBBP (1084-1701) = biological target: T2, CREBBP (1084-1701) (Homo sapiens, UniProt Q92793); assay: Biochemical assay for CREBBP (1084-1701), SAMDI; details: read-out: CREBBP Biochemistry IC50
T2 construct: measured in the following biochemical assay using CREBBP (1084-1701); purchased
T2 sequence (Q92793 1084-1701): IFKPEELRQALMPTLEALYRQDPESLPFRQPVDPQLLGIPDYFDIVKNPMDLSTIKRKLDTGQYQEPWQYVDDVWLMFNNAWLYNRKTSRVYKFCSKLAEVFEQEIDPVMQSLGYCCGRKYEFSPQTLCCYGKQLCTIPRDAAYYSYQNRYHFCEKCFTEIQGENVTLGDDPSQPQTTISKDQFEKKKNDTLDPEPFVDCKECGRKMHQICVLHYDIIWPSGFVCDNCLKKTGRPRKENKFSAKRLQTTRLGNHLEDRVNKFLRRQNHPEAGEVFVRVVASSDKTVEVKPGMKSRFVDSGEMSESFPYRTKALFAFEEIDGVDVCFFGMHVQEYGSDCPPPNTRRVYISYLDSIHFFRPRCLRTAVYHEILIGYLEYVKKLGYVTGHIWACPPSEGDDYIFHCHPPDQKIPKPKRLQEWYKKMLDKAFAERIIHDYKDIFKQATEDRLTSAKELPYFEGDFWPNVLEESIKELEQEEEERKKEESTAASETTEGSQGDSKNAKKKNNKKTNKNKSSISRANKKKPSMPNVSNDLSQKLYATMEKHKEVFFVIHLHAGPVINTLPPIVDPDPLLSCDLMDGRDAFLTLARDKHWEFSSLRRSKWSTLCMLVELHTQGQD
Summary of the method: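 CREBBP (1084-1701) preincubated with compound 30 min at RT, then substrate mix (biotin-H3 11-25 K14R/K23R peptide, acetyl-CoA) added for 30 min at RT. Reaction stopped with formic acid, neutralised with sodium bicarbonate. Peptide acetylation read by SAMDI mass spectrometry to derive IC50.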

[2] = 2 h, H3K18Ac in HB-CLS-2 cells, 2 hrs compound incubation
[3] = 168 h, 647V cells, day 7, CellTiter-Glo
[4] = P300(1048-1664), Peptide #233, Ac-CoA, SAMDI mass spectrometry
[5] = Peptide #233, Acetyl-CoA, SAMDI mass spectrometry

| IC50 ([1]; H3K18Ac in-cell western) [nM] | IC50 (EP300 (P300(1048-1664)); EP300, SAMDI) [nM] | IC50 (CREBBP (1084-1701); SAMDI) [nM] | IC50 [1, 2] [nM] | IC50 (EP300 (P300(1048-1664)); [4]) [nM] | IC50 (CREBBP (1084-1701); [5]) [nM] | SMILES | IC50 (647V cells; high throughput proliferation) [nM] | IC50 (647V cells; [3]) [nM] |
| --- | --- | --- | --- | --- | --- | --- | --- | --- |
| – | – | – | 65.4 | 5.6 | 24.8 | CCc1ncc(CN(C)C(=O)c2cc(-c3cc(C(=O)NC)n(C)n3)nc3ccc(C4CC4)cc23)n1C [Compound 636] | – | 132 |
| – | – | – | 420 | 34.4 | 98.7 | CCc1ncc(CN(C)C(=O)c2cc(-c3ccc(NCCN(C)C)c(C)n3)nc3ccc(COC)cc23)n1C [Compound 637] | – | 295 |
| – | – | – | 124 | 66.2 | 116 | CCn1ncc(CN(C)C(=O)c2nc(-c3cc(C(=O)NC)n(C)n3)nc3ccc(C4CC4)cc23)c1C [Compound 638] | – | 357 |
| – | – | – | 20000 | 50000 | 50000 | CCn1ncc(C(N(C)C(=O)c2cc(-c3ccc(NCCN(C)C)c(C)n3)nc3ccc(Cl)cc23)C(F)(F)F)c1C (stereo not shown) [Compound 639] | – | 2170 |
| – | – | – | 135 | 9 | 24.6 | Cc1nc(-c2cc(C(=O)N(C)Cc3cnc(C4CC4)n3C)c3cc(Cl)ccc3n2)ccc1NC1CCN(C)C1 (stereo not shown) [Compound 640] | – | 48.7 |
| – | – | – | 200 | 22.1 | 73.3 | COCc1ccc2nc(-c3ccc(NCCN(C)C)c(C)n3)cc(C(=O)N(C)Cc3cnc(C4CC4)n3C)c2c1 [Compound 641] | – | 111 |
| – | – | – | 86.6 | 9.1 | 28.1 | CCc1ncc(CN(C)C(=O)c2cc(-c3ccc(NC4CCN(C)C4)c(C)n3)nc3ccc(Cl)cc23)n1C (stereo not shown) [Compound 642] | – | 33.4 |

The next lines start with the molecule.

| SMILES | IC50 ([1]; H3K18Ac in-cell western) [nM] | IC50 (EP300 (P300(1048-1664)); EP300, SAMDI) [nM] | IC50 (CREBBP (1084-1701); SAMDI) [nM] | IC50 [1, 2] [nM] | IC50 (EP300 (P300(1048-1664)); [4]) [nM] | IC50 (CREBBP (1084-1701); [5]) [nM] | IC50 (647V cells; high throughput proliferation) [nM] | IC50 (647V cells; [3]) [nM] |
| --- | --- | --- | --- | --- | --- | --- | --- | --- |
| CCn1ncc(CN(C)C(=O)c2cc(-c3ccc(NCCS(C)(=O)=O)c(C)n3)nc3ccc(Cl)cc23)c1C [Compound 625] | 114 | 11.3 | 19.2 | – | – | – | 163 | – |
| Cc1nc(-c2cc(C(=O)N(C)Cc3cn(C)c(CC(F)(F)F)n3)c3cc(Cl)ccc3n2)ccc1NCCN(C)C [Compound 626] | 3210 | 4240 | 3310 | – | – | – | 5780 | – |
| CCc1ncc(CN(C)C(=O)c2cc(-c3cc(C(=O)NC)n(C)n3)nc3ccc(COC)cc23)n1C [Compound 627] | 271 | 15.6 | 49.6 | – | – | – | 506 | – |
| CCn1ncc(CN(C)C(=O)c2cc(-c3ccc(NCC4CN(C)CCO4)c(C)n3)nc3ccc(Cl)cc23)c1C (stereo not shown) [Compound 628] | 3300 | 1730 | 3630 | – | – | – | 997 | – |
| CCc1ncc(CN(C)C(=O)c2cc(-c3cc(-c4ncc[nH]4)n(C)n3)nc3ccc(COC)cc23)n1C [Compound 629] | 256 | 16.8 | 34 | – | – | – | 292 | – |
| CCc1ncc(CN(C)C(=O)c2nc(-c3cc(-c4ncc[nH]4)n(C)n3)nc3ccc(Cl)cc23)n1C [Compound 631] | – | – | – | 125 | 8.8 | 16.7 | – | 194 |
| CCn1ncc(CN(C)C(=O)c2nc(-c3cnc4n[nH]c(NC)c4c3)nc3ccc(Cl)cc23)c1C [Compound 632] | – | – | – | 42.1 | 4.6 | 3.2 | – | 105 |
| CCc1ncc(CN(C)C(=O)c2nc(-c3cc(C(=O)NC)n(C)n3)nc3ccc(C4CC4)cc23)n1C [Compound 633] | – | – | – | 227 | 14.6 | 34.3 | – | 369 |
| CCn1ncc(CN(C)C(=O)c2cc(-c3cc(C(=O)NC)n(C)n3)nc3ccc(C4CC4)cc23)c1C [Compound 635] | – | – | – | 52.6 | 6.6 | 24.2 | – | 143 |
